Converted amounts (≈) assume the structure as drawn. Like-named read-outs stand apart in the source and are kept apart here.
Experiments:
M. haemolytica = experiment: In-vitro MIC model (CLSI broth micro-dilution); conditions: Mannheimia haemolytica
P. multocida [1] = experiment: Murine P. multocida intranasal challenge study with lung tissue RNA sequence analysis; format: in vivo, mice; conditions: subcutaneous 18 hours after challenge (5×10^3 CFU/mouse): tulathromycin 16 mg/kg, M9 32 mg/kg, ceftiofur 9 mg/kg; placebo 0%
Description: In one murine P. multocida intranasal challenge study, mice were administered tulathromycin (16 mg/kg; T02), M9 (32 mg/kg; T03), or ceftiofur (9 mg/kg; T04) by subcutaneous injection 18 hours after bacterial challenge (5×10^3 CFU/mouse) for lung tissue RNA sequence analysis. Survival at Day 7 was about 80%, 50%, and 90% for T02, T03, and T04, respectively, compared to placebo at 0%. Differential gene expression from total lung tissue RNA sequence analysis indicated at least 226 unique genes were up or down regulated (with significance) for T03. Output from ingenuity pathway analysis of these unique genes predicted major upstream regulators of the involved pathways. Data was analyzed based on the number of genes being modulated in the same direction that were associated with a given upstream regulator. An activation z-score of 2 or greater is considered significant and the direction change is indicated by +(activated) or − (inhibited). The top 5 pathways included: IL-9 signaling, glucocorticoid receptor signaling, prolactin signaling, JAK STAT signaling, and IL-17 signaling. The top 6 upstream regulators (activation z-score) included: lipopolysaccharide (−6.725), TNF (−4.669), IFNG (−5.759), IL-1β (−5.947), STAT1 (−2.787), and poly rl:rC-RNA (−5.289). Even though this study was run in the murine model, the top upstream regulators identified as being modulated by M9 include an almost ubiquitous overlap with the pathways identified in the natural disease study as being key mediators in BRD, and therefore is modulating highly relevant pathways in BRD pathobiology.

E. coli = experiment: In-vitro MIC model (CLSI broth micro-dilution); conditions: Escherichia coli, ATCC25922, read-out: Comparative MIC's, E. coli ATCC 25922
P. multocida [2] = experiment: In-vitro MIC model (CLSI broth micro-dilution); conditions: Pasteurella multocida, ATCC43137, read-out: Comparative MIC's, P. multocida ATCC 43137
IL-6 = experiment: Plasma IL-6 biomarker in bovine M. haemolytica challenge; conditions: bovine, in vivo

CCCNC[C@]1(O)[C@H](C)O[C@@H](O[C@H]2[C@H](C)[C@@H](O[C@@H]3O[C@H](C)C[C@H](N(C)C)[C@H]3O)[C@](C)(O)C[C@@H](C)CN[C@H](C)[C@@H](O)[C@](C)(O)[C@@H](CC)OC(=O)[C@@H]2C)C[C@@]1(C)OC [Tulathromycin, (2R,3S,4R,5R,8R,10R,11R,12S,13S,14R)-11-(((2S,3R,4S,6R)-4-(dimethylamino)-3-hydroxy-6-methyltetrahydro-2H-pyran-2-yl)oxy)-2-ethyl-3,4,10-trihydroxy-13-(((2R,4R,5S,6S)-5-hydroxy-4-methoxy-4,6-dimethyl-5-((propylamino)methyl)tetrahydro-2H-pyran-2-yl)oxy)-3,5,8,10,12,14-hexamethyl-1-oxa-6-azacyclopentadecan-15-one]
MIC (M. haemolytica; ATCC33396, read-out: Comparative MIC's, M. haemolytica ATCC 33396): 1 µg/mL (≈ 1.24 µM) | MIC (M. haemolytica; read-out: Comparative MIC's, M. haemolytica 12726): 2 µg/mL (≈ 2.48 µM) | MIC (M. haemolytica; read-out: Comparative MIC's, M. haemolytica 46571*): 1 µg/mL (≈ 1.24 µM) | Survival at Day 7 (P. multocida [1]): about 80% | MIC (E. coli): 2 µg/mL (≈ 2.48 µM) | MIC (P. multocida [2]): 1 µg/mL (≈ 1.24 µM) | IL-6 levels (plasma) in bovine M. haemolytica challenge (IL-6): significantly reduced

From patent publication US12295936B2, “Immunomodulating urea azalides” (Zoetis Services LLC, priority 2020, dated 2025)
